# Earlier results as cited in PubChem BioAssay AID1259409 (Chemical Carcinogenesis Research Information System (CCRIS), 2018).
# Several values for one entry are separate records, joined by “and”; a condition that tells them apart may be missing. Equal entries are not always repeated.
# System: rodent chemically induced tumor inhibition, incidence and multiplicity
# Assay: CCRIS tumor inhibitor studies
smiles,measurement,setting,value
C=C1/C(=C\C=C2/CCC[C@]3(C)[C@@H]([C@H](C)CCCC(C)(C)O)CC[C@@H]23)C[C@@H](O)C[C@@H]1O,"tumour outcome (control, treated, inhibition, significance)","Carcinogen: 7,12-DIMETHYLBENZ[A]ANTHRACENE, 57-97-6, Dose [Inhibitor]: 0.125 NMOL 2/WK STARTING 1 WK AFTER CARCINOGEN TREATMENT AND CONTINUING FOR 9 WK (STUDY DURATION: 10 WK), Route [Inhibitor]: DERMAL, Species: MOUSE, Strain/Sex: CD-1/FEMALE, Target Tissue: Type of Lesion: SKIN: PAPILLOMA, Dose [Carcinogen]: 20 NMOL ONCE, Promoter: 12-O-TETRADECANOYLPHORBOL-13-ACETATE, 16561-29-8","77%, 37%, 52%, p<0.05"
same,"tumour outcome (control, treated, inhibition, significance)","Carcinogen: 7,12-DIMETHYLBENZ[A]ANTHRACENE, 57-97-6, Dose [Inhibitor]: 0.125 NMOL 2/WK STARTING 1 WK AFTER CARCINOGEN TREATMENT AND CONTINUING FOR 12 WK (STUDY DURATION: 13 WK), Route [Inhibitor]: DERMAL, Species: MOUSE, Strain/Sex: CD-1/FEMALE, Target Tissue: Type of Lesion: SKIN: PAPILLOMA, Dose [Carcinogen]: 20 NMOL ONCE, Promoter: 12-O-TETRADECANOYLPHORBOL-13-ACETATE, 16561-29-8","96%, 70%, 27%, p<0.05"
same,"tumour outcome (control, treated, inhibition, significance)","Carcinogen: 7,12-DIMETHYLBENZ[A]ANTHRACENE, 57-97-6, Dose [Inhibitor]: 0.25 NMOL 2/WK STARTING 1 WK AFTER CARCINOGEN TREATMENT AND CONTINUING FOR 9 WK (STUDY DURATION: 10 WK), Route [Inhibitor]: DERMAL, Species: MOUSE, Strain/Sex: CD-1/FEMALE, Target Tissue: Type of Lesion: SKIN: PAPILLOMA, Dose [Carcinogen]: 20 NMOL ONCE, Promoter: 12-O-TETRADECANOYLPHORBOL-13-ACETATE, 16561-29-8","77%, 33%, 57%, p<0.05"
same,"tumour outcome (control, treated, inhibition, significance)","Carcinogen: 7,12-DIMETHYLBENZ[A]ANTHRACENE, 57-97-6, Dose [Inhibitor]: 0.25 NMOL 2/WK STARTING 1 WK AFTER CARCINOGEN TREATMENT AND CONTINUING FOR 12 WK (STUDY DURATION: 13 WK), Route [Inhibitor]: DERMAL, Species: MOUSE, Strain/Sex: CD-1/FEMALE, Target Tissue: Type of Lesion: SKIN: PAPILLOMA, Dose [Carcinogen]: 20 NMOL ONCE, Promoter: 12-O-TETRADECANOYLPHORBOL-13-ACETATE, 16561-29-8","96%, 70%, 27%, p<0.05"
same,"tumour outcome (control, treated, inhibition, significance)","Carcinogen: 7,12-DIMETHYLBENZ[A]ANTHRACENE, 57-97-6, Dose [Inhibitor]: 0.5 NMOL 2/WK STARTING 1 WK AFTER CARCINOGEN TREATMENT AND CONTINUING FOR 12 WK (STUDY DURATION: 13 WK), Route [Inhibitor]: DERMAL, Species: MOUSE, Strain/Sex: CD-1/FEMALE, Target Tissue: Type of Lesion: SKIN: PAPILLOMA, Dose [Carcinogen]: 20 NMOL ONCE, Promoter: 12-O-TETRADECANOYLPHORBOL-13-ACETATE, 16561-29-8","83%, 43%, 48%, p<0.05 and 96%, 59%, 39%, p<0.05"
same,"tumour outcome (control, treated, inhibition, significance)","Carcinogen: 7,12-DIMETHYLBENZ[A]ANTHRACENE, 57-97-6, Dose [Inhibitor]: 0.5 NMOL 2/WK STARTING 1 WK AFTER CARCINOGEN TREATMENT AND CONTINUING FOR 15 WK (STUDY DURATION: 16 WK), Route [Inhibitor]: DERMAL, Species: MOUSE, Strain/Sex: CD-1/FEMALE, Target Tissue: Type of Lesion: SKIN: PAPILLOMA, Dose [Carcinogen]: 20 NMOL ONCE, Promoter: 12-O-TETRADECANOYLPHORBOL-13-ACETATE, 16561-29-8","88%, 59%, 33%, p<0.05 and 92%, 77%, 16%, not significant"
same,"tumour outcome (control, treated, inhibition, significance)","Carcinogen: 7,12-DIMETHYLBENZ[A]ANTHRACENE, 57-97-6, Dose [Inhibitor]: 2 NMOL 2/WK STARTING 1 WK AFTER CARCINOGEN TREATMENT AND CONTINUING FOR 9 WK (STUDY DURATION: 10 WK), Route [Inhibitor]: DERMAL, Species: MOUSE, Strain/Sex: CD-1/FEMALE, Target Tissue: Type of Lesion: SKIN: PAPILLOMA, Dose [Carcinogen]: 20 NMOL ONCE, Promoter: 12-O-TETRADECANOYLPHORBOL-13-ACETATE, 16561-29-8","47%, 4%, 91%, p<0.05"
same,"tumour outcome (control, treated, inhibition, significance)","Carcinogen: 7,12-DIMETHYLBENZ[A]ANTHRACENE, 57-97-6, Dose [Inhibitor]: 2 NMOL 2/WK STARTING 1 WK AFTER CARCINOGEN TREATMENT AND CONTINUING FOR 12 WK (STUDY DURATION: 13 WK), Route [Inhibitor]: DERMAL, Species: MOUSE, Strain/Sex: CD-1/FEMALE, Target Tissue: Type of Lesion: SKIN: PAPILLOMA, Dose [Carcinogen]: 20 NMOL ONCE, Promoter: 12-O-TETRADECANOYLPHORBOL-13-ACETATE, 16561-29-8","83%, 12%, 86%, p<0.05"
same,"tumour outcome (control, treated, inhibition, significance)","Carcinogen: 7,12-DIMETHYLBENZ[A]ANTHRACENE, 57-97-6, Dose [Inhibitor]: 2 NMOL 2/WK STARTING 1 WK AFTER CARCINOGEN TREATMENT AND CONTINUING FOR 15 WK (STUDY DURATION: 16 WK), Route [Inhibitor]: DERMAL, Species: MOUSE, Strain/Sex: CD-1/FEMALE, Target Tissue: Type of Lesion: SKIN: PAPILLOMA, Dose [Carcinogen]: 20 NMOL ONCE, Promoter: 12-O-TETRADECANOYLPHORBOL-13-ACETATE, 16561-29-8","88%, 18%, 80%, p<0.05"
same,"tumour outcome (control, treated, inhibition, significance)","Carcinogen: N-METHYL-N-NITROSOUREA [684-93-5], Dose [Inhibitor]: 0, 0.8 ML OF 10 µM ETHANOL SOLUTION ADMINISTERED IN NORMAL SALINE VIA CATHETER 1X/WK FOR 7 WK BEGINNING 3 WK POST CARCIN, Route [Inhibitor]: INTRAVESICAL, Species: RAT, Strain/Sex: F344/FEMALE, Target Tissue: Type of Lesion: URINARY BLADDER: TUMOR, Dose [Carcinogen]: ONCE/2 WK FOR 6 WK (STUDY DURATION: 31 WK; DOSE NOT REPORTED), Promoter: NONE","6/9 (67%), 5/9 (56%), 16%, not significant"
c1c[nH]cn1,"tumour outcome (control, treated, inhibition, significance)","Carcinogen: N-METHYL-N-NITROSOUREA, 684-93-5, Dose [Inhibitor]: 1000 MG/KG OF LOW (3%) FAT DIET BEGINNING 1 WK POST CARCINOGEN DOSE AND CONTINUING FOR DURATION OF STUDY (STUDY DURATION, Route [Inhibitor]: ORAL, Species: RAT, Strain/Sex: SPRAGUE-DAWLEY/FEMALE, Target Tissue: Type of Lesion: MAMMARY GLAND: TUMOR, Dose [Carcinogen]: 40 MG/KG ONCE, Promoter: NONE USED","78%, 92%, -18%, not calculated"
O=S(=O)(O)CCSSCCS(=O)(=O)O,"tumour outcome (control, treated, inhibition, significance)","Carcinogen: CYCLOPHOSPHAMIDE, 50-18-0, Dose [Inhibitor]: 12 MG/KG BW IN DRINKING WATER 5/WK FOR 20 MO SIMULTANEOUSLY WITH CARCINOGEN TREATMENT (STUDY DURATION: 20 MO), Route [Inhibitor]: ORAL, Species: RAT, Strain/Sex: SPRAGUE-DAWLEY/MALE, Target Tissue: Type of Lesion: NERVOUS TISSUE: NEOPLASM, Dose [Carcinogen]: 2.5 MG/KG BW IN DRINKING WATER 5/WK FOR 20 MO, Promoter: NONE USED","14%, 15%, -7%, not calculated"
same,"tumour outcome (control, treated, inhibition, significance)","Carcinogen: CYCLOPHOSPHAMIDE, 50-18-0, Dose [Inhibitor]: 12 MG/KG BW IN DRINKING WATER 5/WK FOR 20 MO SIMULTANEOUSLY WITH CARCINOGEN TREATMENT (STUDY DURATION: 20 MO), Route [Inhibitor]: ORAL, Species: RAT, Strain/Sex: SPRAGUE-DAWLEY/MALE, Target Tissue: Type of Lesion: URINARY BLADDER: TUMOR, Dose [Carcinogen]: 2.5 MG/KG BW IN DRINKING WATER 5/WK FOR 20 MO, Promoter: NONE USED","30%, 12%, 60%, p>0.0005*"
same,"tumour outcome (control, treated, inhibition, significance)","Carcinogen: CYCLOPHOSPHAMIDE, 50-18-0, Dose [Inhibitor]: 12 MG/KG BW IN DRINKING WATER 5/WK FOR DURATION OF STUDY SIMULTANEOUSLY WITH CARCINOGEN TREATMENT (STUDY DURATION: LIFE), Route [Inhibitor]: ORAL, Species: RAT, Strain/Sex: SPRAGUE-DAWLEY/MALE, Target Tissue: Type of Lesion: URINARY BLADDER: PAPILLOMA, CARCINOMA, Dose [Carcinogen]: 2.5 MG/KG BW IN DRINKING WATER 5/WK FOR DURATION OF STUDY, Promoter: NONE USED","32/100 (32%), 7/50 (14%), 56%, p<0.00005*"
same,"tumour outcome (control, treated, inhibition, significance)","Carcinogen: CYCLOPHOSPHAMIDE, 50-18-0, Dose [Inhibitor]: 35 MG/KG BW IN DRINKING WATER 5/WK FOR 20 MO SIMULTANEOUSLY WITH CARCINOGEN TREATMENT (STUDY DURATION: 20 MO), Route [Inhibitor]: ORAL, Species: RAT, Strain/Sex: SPRAGUE-DAWLEY/MALE, Target Tissue: Type of Lesion: NERVOUS TISSUE: NEOPLASM, Dose [Carcinogen]: 2.5 MG/KG BW IN DRINKING WATER 5/WK FOR 20 MO, Promoter: NONE USED","14%, 15%, -7%, not calculated"
same,"tumour outcome (control, treated, inhibition, significance)","Carcinogen: CYCLOPHOSPHAMIDE, 50-18-0, Dose [Inhibitor]: 35 MG/KG BW IN DRINKING WATER 5/WK FOR 20 MO SIMULTANEOUSLY WITH CARCINOGEN TREATMENT (STUDY DURATION: 20 MO), Route [Inhibitor]: ORAL, Species: RAT, Strain/Sex: SPRAGUE-DAWLEY/MALE, Target Tissue: Type of Lesion: URINARY BLADDER: TUMOR, Dose [Carcinogen]: 2.5 MG/KG BW IN DRINKING WATER 5/WK FOR 20 MO, Promoter: NONE USED","30%, 6%, 80%, p>0.0005*"
same,"tumour outcome (control, treated, inhibition, significance)","Carcinogen: CYCLOPHOSPHAMIDE, 50-18-0, Dose [Inhibitor]: 35 MG/KG BW IN DRINKING WATER 5/WK FOR DURATION OF STUDY SIMULTANEOUSLY WITH CARCINOGEN TREATMENT (STUDY DURATION: LIFE), Route [Inhibitor]: ORAL, Species: RAT, Strain/Sex: SPRAGUE-DAWLEY/MALE, Target Tissue: Type of Lesion: URINARY BLADDER: PAPILLOMA, CARCINOMA, Dose [Carcinogen]: 2.5 MG/KG BW IN DRINKING WATER 5/WK FOR DURATION OF STUDY, Promoter: NONE USED","32/100 (32%), 3/50 (6%), 81%, p<0.00005*"
